According to US9629830B2, “EphA4 inhibitors as neuroprotective agents” (The Hong Kong University of Science and Technology, priority 2013, dated 2017):
“Also recorded” adds a separate entry of the source.

How the values were obtained:
EphA4 (HT-22 cells) = biological target: T1, EphA4 (HT-22 cells) (Mus musculus, UniProt Q03137); assay: Cell-based binding of biotinylated ephrin-A1 to the surface of HT-22 cells; conditions: 10 min pre-incubation; Rhy 300 μM, KYL 100 μM (FIG. 10); biotinylated ephrin-A1 0.5 μg/mL
T1 construct: HT-22 cells, a cell line that expresses EphA4; endogenous in cells; host or cells: HT-22 cells
Procedure: HT-22 cells were seeded on poly-D-lysine coverslips. […] The cells were then fixed with 4% paraformaldehyde and then immunostained with Alexa Fluor 488-conjugated Streptavidin antibody (Molecular Probes) for surfacing labeling of biotinylated ephrin-A1.

[1] = tested on: Aβ-induced reduction of neurotransmission in hippocampal neurons; assay: mEPSC recording in Aβ-treated cultured hippocampal neurons; format: cell-based, rat
Procedure: Primary cortical and hippocampal neurons were prepared from embryonic day 18-19 rat embryos as described previously^24. Briefly, cortical neurons (6×10^6 per plate) were plated on 100-mm culture dishes coated with poly-D-lysine (12.5 μg/mL; Sigma). Rat hippocampal neurons were seeded on 18-mm coverslips coated with poly-D-lysine (50 μg/mL) at a density of 0.5×10^5/18-mm coverslip for immunocytochemical analysis, 0.1×10^5/18-mm coverslip for growth cone collapse assay, or 1×10^5 or 1.5×10^5/18-mm coverslip for mEPSC recording. Neurons were fed Neurobasal medium (Invitrogen) supplemented with 2% B27 (Invitrogen). Acute brain slices were prepared from P15-P17 Sprague-Dawley rats. Briefly, the rats were rapidly decapitated, and their brains were immersed in ice-cold artificial cerebrospinal fluid (ACSF). The hippocampus was dissected, and 300-μm-thick slices were prepared using a vibratome (Lieca). The slices were then transferred into an incubating chamber containing circulating ACSF equilibrated with 95% O2+5% CO2 and held at room temperature for at least 2 h for recovery prior to experiments^65.
For miniature EPSC recordings, hippocampal neurons at ˜25-28 DIV were co-treated with or without 500 nM Aβ together with the testing reagents for 24 h. Whole-cell patch-clamp recordings were made at room temperature with external solution containing (in mM) 110 NaCl, 5 KCl, 2 CaCl2, 0.8 MgCl2, 10 HEPES, and 10 D-glucose (pH 7.4) as well as an internal solution containing (in mM) 135 CsCl2, 10 HEPES, 2 MgCl2, 4 NaATP, 0.4 NaGTP, and 0.5 EGTA (pH 7.2)^24,27. Picrotoxin ([…]) was included in the external solution to block GABAergic IPSCs along with 0.5 μM TTX to prevent action potential-evoked EPSCs. For miniature EPSC recordings, cells were held at −70 mV. The pipette resistances for these experiments were typically 3-5 MΩ, while series resistances were 15-20 MΩ. The minis from each cell was recorded for 1 min in each condition. The measurement of mEPSC was according to that described in Mini Analysis Program for measuring AMPA receptor EPSCs (Synaptosoft Inc.). Only recording epochs in which series and input resistances varied <10% were analyzed. Data are presented as the mean±SEM of at least 3 experiments.

APP/PS1 mutant mice = assay: HFS-induced hippocampal LTP in WT and APP/PS1 mice after in vivo treatment; set-up: species or system mouse; conditions: Rhy oral 50 mg·kg−1·day−1 for 3 weeks
Description: APP/PS1 double-transgenic mice were obtained from Jackson Laboratory (B6C3-Tg[APPswe, PSEN1dE9]85Dbo/J)^66. These mice were generated by incorporating a human/murine APP construct bearing the Swedish double mutation and the exon-9-deleted PSEN1 mutation (APPswe+PSEN1/dE9). APP transgenic mice (Tg2576) expressing a double mutant of human AβPP (Lys^670→Asn^670, Met^671→Leu^671) were also used^31. Both sexes were used for experiments, and all mice used in this study were produced by the Animal Care Facility of The Hong Kong University of Science and Technology. The genotype was confirmed by polymerase chain reaction analysis of tail biopsies. Four to five mice of the same sex were housed in a cage with food and water ad libitum with a 12-hour light/dark cycle.
To investigate the effect of blocking EphA4 signaling by KYL peptide in AD mice, 4-5-month-old AD transgenic mice were implanted with Alzet mini-osmotic pumps, model 1004, pumping its contents at 0.11 μL/h for 28 days. Pumps were loaded with either 0.23 μg/μL KYL peptide (17 μg) or vehicle solvent in artificial cerebrospinal fluid (CSF). The mini-osmotic pumps were adjusted intracerebroventricularly in the right hemisphere. EphA4 in the CA1 regions of APP/PS1 mice was knocked down by injecting vesicular stomatitis virus glycoprotein G-pseudotyped lentiviral particles with pFUGW-shEphA4 bilaterally into the corresponding regions as described previously^58.
For LTP recordings, mouse brains were immediately dissected after sacrifice and soaked in ice-cold 95% O2/5% CO2 (aCSF)^58. Brain slices (300 μm thick) were prepared using a vibrating tissue slicer (HM650V; Thermo), and soaked in oxygenated buffer for 2 h at 32° C. […] For treatment with EphA4 inhibitors, the slices were pretreated with peptides or chemicals for 1 h before application of Aβ. fEPSPs were recorded using a MED64 multichannel recording system, and the data were collected from the dendritic layer of area CA1 at a sampling rate of 10 kHz. For each slice, the baseline stimulus intensity was set at the level that elicited ˜50% of the maximum fEPSP response determined according to the input-output curve. […] The magnitude of LTP was quantified as a percentage change in the fEPSP slope (10%-90%) taken during the 60-min interval after LTP induction.
WT and APP/PS1 mutant (Tg) mice were orally administered with corylin ([…]) by daily gavage for 3-4 weeks prior to LTP measurements. LTP induced by 3 trains of HFS (100 Hz for 1 s delivered 30 s apart) in the CA1 region of the SC pathway of the hippocampus was measured. The magnitude of LTP was quantified as the percentage change in the fEPSP slope (10-90%) taken during the 60-min interval after LTP induction.

[2] = tested on: glutamate-induced Ca2+ influx; conditions: subsequent study; cited from earlier work

T1 sequence (Q03137 20-986): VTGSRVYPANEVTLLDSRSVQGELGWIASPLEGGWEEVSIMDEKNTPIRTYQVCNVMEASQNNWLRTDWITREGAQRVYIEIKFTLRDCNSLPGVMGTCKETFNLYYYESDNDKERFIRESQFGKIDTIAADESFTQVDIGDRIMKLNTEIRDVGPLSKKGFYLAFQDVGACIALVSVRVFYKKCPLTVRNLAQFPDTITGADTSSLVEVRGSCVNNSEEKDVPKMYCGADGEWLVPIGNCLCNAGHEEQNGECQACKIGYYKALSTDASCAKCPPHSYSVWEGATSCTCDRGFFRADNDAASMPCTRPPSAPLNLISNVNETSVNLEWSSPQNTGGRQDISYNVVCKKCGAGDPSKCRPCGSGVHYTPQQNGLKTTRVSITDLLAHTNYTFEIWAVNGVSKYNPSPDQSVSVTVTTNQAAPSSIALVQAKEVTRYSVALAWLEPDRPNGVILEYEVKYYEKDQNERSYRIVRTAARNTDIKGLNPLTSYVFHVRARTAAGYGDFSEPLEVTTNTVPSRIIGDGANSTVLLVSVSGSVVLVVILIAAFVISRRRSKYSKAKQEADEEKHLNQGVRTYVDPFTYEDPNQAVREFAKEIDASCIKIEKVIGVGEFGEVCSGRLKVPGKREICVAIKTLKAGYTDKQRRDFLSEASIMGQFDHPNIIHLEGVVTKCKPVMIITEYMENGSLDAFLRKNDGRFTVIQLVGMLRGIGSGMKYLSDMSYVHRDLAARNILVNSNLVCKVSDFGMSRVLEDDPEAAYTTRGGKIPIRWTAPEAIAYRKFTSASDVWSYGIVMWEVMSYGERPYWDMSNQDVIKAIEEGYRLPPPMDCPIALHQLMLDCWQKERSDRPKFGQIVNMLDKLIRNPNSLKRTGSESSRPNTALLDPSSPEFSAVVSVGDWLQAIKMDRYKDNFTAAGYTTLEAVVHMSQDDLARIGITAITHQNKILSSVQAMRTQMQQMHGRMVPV

CC[C@H]1CN2CC[C@]3(C(=O)Nc4ccccc43)[C@@H]2C[C@@H]1/C(=C\OC)C(=O)OC [Rhy, methyl (7β,16E,20α)-16-(methoxymethylene)-2-oxocorynoxan-17-oate]
binding of ephrin-A1 to HT-22 cells (EphA4 (HT-22 cells)): reduced the binding of ephrin-A1 to HT-22 cells; also recorded: reduces the binding of ephrin-A1 to the surface of HT22 cells
mEPSC inter-event interval ([1]; Rhy 10 μM + Aβ, Aβ alone 897.4±43.4 ms): 420.6 ± 9.6 ms
mEPSC inter-event interval ([1]; Rhy 10 μM alone, control 312.9±7.8 ms): 512.2 ± 13.6 ms
mean fEPSP slope, last 10 min after LTP induction (APP/PS1 mutant mice; APP/PS1 (Tg) mice, Tg control 147.6±3.5%): 198.1±8.9%
mean fEPSP slope, last 10 min after LTP induction (APP/PS1 mutant mice; WT mice, WT control 194.0±7.0%): 180.5±7.7%
inhibition of glutamate-induced Ca2+ influx [2]: nor inhibits the glutamate-induced Ca^2+ influx
